According to US7927612B2, “Combinations and methods for treating neoplasms” (priority 2000, dated 2011):
“And” between values parts separate entries of the source, which are not always exact repeats. Identical values can stand only once.

Tests used:
[1] = system: liver cancer cells; test: Treatment efficacy study in mice with implanted liver cancer cells: tumor volume (Example 9, Tables 14-16); assay type: in vivo, Kuiking mice; design: Everage TV1 (average tumor volume): unit not given here; settings: control group
Experimental: Kuiking mice were used in this study. The average weight of the mice used in this study is about 23 grams. About 10^3 liver cancer cells were implanted into the left army pit of mice. […] The mice were divided into three groups: control group, therapy group and immunotherapy group. In the control group, 0.1 ml of Ara-C in normal saline was injected to the tumor via intro-tumor injection. […]

[2] = Body weight of tumor-bearing mice in the treatment efficacy study (Example 9, Tables 14-16); assay type: in vivo, Kuiking mice; design: unit: g; settings: control group
Experimental: Kuiking mice were used in this study. The average weight of the mice used in this study is about 23 grams. About 10^3 liver cancer cells were implanted into the left army pit of mice. At about 10 days, the small tumor grew under the mice skin. At about 15 days, the tumor grew to about 1 cm size. The mice were divided into three groups: control group, therapy group and immunotherapy group. In the control group, 0.1 ml of Ara-C in normal saline was injected to the tumor via intro-tumor injection.
In the immunotherapy group, 0.1 ml of the combination of ethanol, H2O2, anticancer drug AraC, hemotoxilin and TNP in normal saline was injected to the tumor via intro-tumor injection.

[3] = Date (start), individual mice No. 1-10

Cytidine Arabinosyladenine [Ara-C]
Everage TV1 (average tumor volume) ([1]; 1 d): 0.8 | TV (tumor volume) ([1]; 1 d, individual mice): 1.3*0.7*0.5 = 0.455 Scm and 1.1*0.8*0.6 = 0.528 Scm and 1.4*1.1*1 = 1.54 Scm and 1*0.9*0.6 = 0.54 Scm and 1.1*1*0.7 = 0.77 Scm and 1.3*0.9*0.8 = 0.94 Scm and 1*0.7*0.7 = 0.49 Scm and 1.1*0.7*0.6 = 0.462 Scm | Everage TV1 (average tumor volume) ([1]; 2 d): 1.33 | TV (tumor volume) ([1]; 2 d, individual mice): 1.2*1.1*0.8 = 1.1 Scm and 1.2*0.9*0.5 = 0.54 Scm and 1.4*1.2*0.8 = 1.34 Scm and 1*0.8*0.6 = 0.48 Scm and 1.3*0.6*0.5 = 0.39 Scm and 1.3*1*0.8 = 1.04 Scm and 1.3*0.8*0.7 = 0.73 Scm and 1.2*1.1*0.8 = 1.06 Scm and 1.2*1*0.8 = 0.96 Scm and 1.3*0.9*0.6 = 0.702 Scm | Everage TV1 (average tumor volume) ([1]; 3 d): 1.47 | TV (tumor volume) ([1]; 3 d, individual mice): 1.1*1.2*0.7 = 0.924 Scm and 1.5*1.2*1 = 1.8 Scm (2×) and 1.2*0.9*0.6 = 0.648 Scm and 1.2*1.1*0.8 = 1.1 Scm and 1.2*1*0.6 = 0.72 Scm and 1.4*1.1*0.7 = 1.08 Scm and 1.4*1.2*0.8 = 1.34 Scm and 1*1*0.6 = 0.6 Scm | Everage TV1 (average tumor volume) ([1]; 4 d): 1.47 | TV (tumor volume) ([1]; 4 d, individual mice): 1.3*1.4*1.1 = 2 Scm and 1.5*1*0.6 = 0.99 Scm and 1.6*1.4*1 = 2.24 Scm and 1.2*0.8*0.5 = 1 Scm and 1.6*1.3*1.4 = 2.9 Scm and 1.4*0.8*0.6 = 0.67 Scm and 1.5*1.2*1.1 = 1.98 Scm and 1.2*1.1*0.8 = 1.06 Scm and 1.3*1.1*0.8 = 1.14 Scm and 1*1*0.7 = 0.7 Scm | Everage TV1 (average tumor volume) ([1]; 5 d): 1.65 | TV (tumor volume) ([1]; 5 d, individual mice): 1.4*1*1 = 1.4 Scm and 1.5*1.3*1 = 1.95 Scm and 1.5*1.1*0.7 = 1.16 Scm and 1.7*1.3*0.9 = 1.98 Scm and 1.2*1.2*0.7 = 1 Scm and 1.5*1.3*0.9 = 1.75 Scm and 1.7*1.4*1 = 2.38 Scm and 1.4*1.4*1 = 1.96 Scm and 1.6*1*0.8 = 1.28 Scm | Everage TV1 (average tumor volume) ([1]; 6 d): 1.87 | TV (tumor volume) ([1]; 6 d, individual mice): 1.3*1.1*0.8 = 1.14 Scm and 1.6*1.3*1.1 = 2.28 Scm and 1.2*1*0.5 = 0.6 Scm and 1.8*1.2*1 = 2.16 Scm and 1.3*1.5*0.6 = 1.17 Scm and 1.6*1.4*1 = 2.24 Scm and 1.9*1.6*1.2 = 3.6 Scm and 1.5*1.4*1.1 = 2.31 Scm and 1.4*1.2*0.8 = 1.34 Scm | Everage TV1 (average tumor volume) ([1]; 7 d): 2.59 | TV (tumor volume) ([1]; 7 d, individual mice): 1.5*0.8*0.7 = 0.84 Scm and 1.8*1.6*1.5 = 4.32 Scm and 1.4*0.9*0.6 = 0.76 Scm and 1.9*1.4*1.2 = 3.19 Scm and 1.5*1.3*0.9 = 1.76 Scm and 1.9*1.5*1 = 2.85 Scm and 1.8*1.5*1.5 = 4 Scm and 1.5*1.4*1.3 = 2.73 Scm and 1.5*1.6*1.2 = 2.88 Scm | Everage TV1 (average tumor volume) ([1]; 8 d): 2.73 | TV (tumor volume) ([1]; 8 d, individual mice): 1.3*0.9*0.7 = 0.819 Scm and 1.4*1.5*1.3 = 2.73 Scm and 1.8*1.2*1.2 = 2.59 Scm and 1.2*0.7*0.6 = 0.5 Scm and 1.5*1.5*1.2 = 2.7 Scm and 1.5*1.6*1.4 = 3.36 Scm and 1.5*1.3*1.2 = 2.34 Scm and 1.5*1.4*1.2 = 2.52 Scm and 1.5*1.2*1.1 = 1.98 Scm | Everage TV1 (average tumor volume) ([1]; 9 d): 3.12 | TV (tumor volume) ([1]; 9 d, individual mice): 1.5*1.2*0.9 = 1.62 Scm and 1.8*1.8*1.8 = 5.8 Scm and 1.9*1.5*1.4 = 3.99 Scm and 1.6*1.1*0.7 = 1.2 Scm and 2.1*1.5*1.4 = 4.4 Scm and 1.3*1.4*1.1 = 2 Scm and 1.7*1.4*1.1 = 2.62 Scm and 1.4*1.6*1.4 = 3.14 Scm and 1.8*1.4*1.3 = 3.28 Scm | Everage TV1 (average tumor volume) ([1]; Date (start)): 0.343 | TV (tumor volume) [1, 3]: 0.8*0.6*0.4 = 0.192 Scm and 1*0.5*0.3 = 0.15 Scm and 1.3*0.9*0.6 = 0.7 Scm and 1*0.7*0.5 = 0.35 Scm and 0.9*0.7*0.5 = 0.32 Scm and 0.8*0.6*0.5 = 0.24 Scm and 1*0.9*0.6 = 0.54 Scm and 1*0.8*0.5 = 0.4 Scm and 0.7*0.7*0.6 = 0.294 Scm and 0.7*0.7*0.5 = 0.245 Scm | Weight ([2]; 1 d, individual mice): 25 (3×) and 20 and 21 and 17 and 25.5 and 18 and 23.5 and 27 | Weight ([2]; 2 d, individual mice): 24 (2×) and 19 (2×) and 16.5 and 17 and 23.8 and 17.5 and 21 and 25 | Weight ([2]; 3 d, individual mice): 22 (4×) and 17.5 and 17 and 15 and 16.5 and 20 and 23.5 | Weight ([2]; 4 d, individual mice): 26.5 and 24 (2×) and 28.2 and 22.8 and 15.8 and 16.5 and 26 and 20 and 28.5 | Weight ([2]; 5 d, individual mice): 24.5 and 30 and 28.5 and 24 (2×) and 28 and 19 and 26.5 and 21.5 | Weight ([2]; 6 d, individual mice): 23.5 and 31 and 29.5 and 24.5 and 28 (2×) and 24 and 19 and 22 | Weight ([2]; 7 d, individual mice): 24 (2×) and 32.5 and 29 and 24.5 and 28.5 and 19.5 and 28 and 21 | Weight ([2]; 8 d, individual mice): 24.5 (3×) and 33 and 24 and 28.5 (2×) and 20 and 21 | Weight ([2]; 9 d, individual mice): 24.5 (2×) and 33.5 and 23.5 and 28.5 (2×) and 21 and 29 and 23 | Weight [2, 3]: 23.5 and 24 and 22.5 and 18 and 18.5 and 14 and 23 and 14.5 and 20 and 26
